The data set in a line: Human HepG2 cell viability assay in 384 well format. Format: toxicity, cell-based. More on the design: dose 125 nL, time 70.5 hour; concentration not given beside the values. The following applies: HepG2 cells, read-out: Inhibition.

SMILES strings stand for the structures.

Turning to `COc1ccc(F)cc1C(=O)C1CCCN(Cc2cnc(C)s2)C1` (configuration not stated), the cytotoxicity at 70.5 h was -11.8%. Turning to `CC[C@H](CO)NC(=O)c1coc(COc2ccccc2F)n1`, the cytotoxicity at 70.5 h is 2.14%. On to `CCOc1ccc(C(=O)N2C[C@H]3CC[C@@H]2CN(C)C3)cc1OCC`, for which the cytotoxicity at 70.5 h was -14.6%. Next, `Cc1cc(C)c2c(N3CCC(C(=O)N4CCOCC4)CC3)ncnc2n1`: 20.2%; `CC1(C)OC(=O)N(CCCOc2ccc(F)cc2)C1=O`: -11.6%.

With `CCC1CN(C(=O)c2ncccc2O)CCC(=O)N1Cc1ccccc1` (configuration not stated), the cytotoxicity at 70.5 h is -0.966%. Consider `Cc1nc2sccn2c1C(=O)N1CCc2c(nc(N(C)C)[nH]c2=O)C1`, for which the cytotoxicity at 70.5 h was 1.53%. As for `COc1ccc(Cc2ncc3c(n2)CN(C(=O)C(C)(C)C)C3)cc1`, the cytotoxicity at 70.5 h was -1.36%. Regarding `CCN1CC(C(=O)NCc2ccc3c(c2)nc(C)n3C)CCC1=O` (configuration not stated), the cytotoxicity at 70.5 h was -13.6%. In the case of `CCc1c(C)nn(CC(=O)NC(C(=O)O)c2c(C)n[nH]c2C)c1C` (configuration not stated), the cytotoxicity at 70.5 h is -7.94%. In the case of `CC(C)(CN1CCOCC1)CN1CCC(Cc2cccc(CO)c2)C1` (configuration not stated), the cytotoxicity at 70.5 h was found to be 17.8%. Consider `COc1nc2c(cc1C(=O)NC(C)Cc1cnccn1)CCC2` (configuration not stated), for which the cytotoxicity at 70.5 h is -7.71%. For the compound `O=C(NCCNc1cccnc1)C(c1cccnc1)N1CCCC1` (configuration not stated), the cytotoxicity at 70.5 h was -9.35%. In the case of `COCCN(Cc1ccccc1Cl)c1nc(CCN)nc2ccccc12`, the cytotoxicity at 70.5 h was -6.84%. With `Cc1cc(C)cc(CCC(=O)NC(C)c2nnn[nH]2)c1` (configuration not stated), the cytotoxicity at 70.5 h is -2.97%. In the case of `Cc1cn(CC(=O)N(C)Cc2cccc3ncccc23)c(=O)[nH]c1=O`, the cytotoxicity at 70.5 h came to 6.82%. With `CCc1noc(CN(CCc2ccccc2)C2CCN(C)CC2)n1`, the cytotoxicity at 70.5 h was determined as 25.9%.

On to `COCc1nc(NCC2CCS(=O)(=O)C2)c2cnn(C)c2n1` (configuration not stated), for which the cytotoxicity at 70.5 h is -7.96%. On to `CN(CCO)Cc1cc(Cl)ccc1OCC(O)CN1CCCCCC1` (configuration not stated), for which the cytotoxicity at 70.5 h is -14.1%. `COc1cccc(-c2cc(C(=O)NCCCC(F)(F)F)[nH]n2)c1`: the cytotoxicity at 70.5 h was 30.9%. As to `O=C(CN1CCOC(c2ccc(Cl)c(Cl)c2)C1)NCc1ccco1` (configuration not stated), the cytotoxicity at 70.5 h is 3.47%. As for `CCC(O)Cn1nc(CCSC)nc1-c1ccc2c(c1)OCCO2` (configuration not stated), the cytotoxicity at 70.5 h is 15.5%. Turning to `O=C(c1cnc(-c2cccnc2)nc1)N1CCC(c2ccncc2)CC1`, the cytotoxicity at 70.5 h was -5.85%. The same measure for `CCc1ncc(-c2nccn2-c2cccc(CC(=O)O)c2)cn1`: -11.5%; for `COc1ccc2nc(CNC(=O)c3cc(C(C)C)no3)[nH]c2c1`: 39.1%. Take `O=C1N(Cc2ccc(F)c(F)c2)CCCC12CCN(C1CCCCC1)C2` (configuration not stated): the cytotoxicity at 70.5 h is 1.47%.

Turning to `CCn1c(CC2CCN(C(=O)c3cc(C(C)C)nn3C)CC2)n[nH]c1=O`, the cytotoxicity at 70.5 h stood at 2.37%. The same measure for `NC(=O)c1cc2c(nc1CC1CCCCO1)CCC2` (configuration not stated): -2.08%; for `O=C(NCc1nncn1C1CCCCC1)C1CNCCO1` (configuration not stated): -6.16%; for `CCc1cn[nH]c1C1CCCN(C(=O)c2cnc(NC(C)C)nc2)C1` (configuration not stated): -5.16%.

With `COCC(C)NCc1ccc2[nH]c(C)c(C)c2c1` (configuration not stated), the cytotoxicity at 70.5 h was -7.86%. As for `Cc1nc(-c2cccnc2)ncc1C(=O)N1CCCC(N(C)C)CC1` (configuration not stated), the cytotoxicity at 70.5 h is -20%. On to `CCC[C@H]1CN(S(=O)(=O)c2c(C)noc2C)C[C@@H]1N`, for which the cytotoxicity at 70.5 h is -3.53%. For the compound `CC(C)Cc1cn(C2CCN(C(C)CCn3cccn3)CC2)nn1` (configuration not stated), the cytotoxicity at 70.5 h is -11.6%. The same measure for `CO[C@H]1C[C@@H](O)C12CCN(C(=O)NCc1ccco1)CC2`: 17.8%; for `O=C1CCC2(CCCN(C(=O)C3CCCC3)C2)CN1CCc1c[nH]cn1` (configuration not stated): -2.97%; for `O=C(NCc1csc2ccc(Cl)cc12)c1cc2n(n1)CCNC2`: 3.64%. In the case of `O=C(CN1CCCCC1)NCc1cccnc1-n1cnc2ccccc21`, the cytotoxicity at 70.5 h is -4.51%. Turning to `CCC(Nc1cccc(OC)c1)C(=O)N(CCO)Cc1nccs1` (configuration not stated), the cytotoxicity at 70.5 h was -3.06%. With `NC(=O)c1cc2c(nc1-c1ccc3c(c1)OCCO3)CCC2`, the cytotoxicity at 70.5 h was -9.8%. The same measure for `Cc1ccc(OCc2occc2C(=O)N2CCCCC(N)C2)cc1` (configuration not stated): -2.2%; for `CN(C)C(=O)CN1C[C@@H]2CC[C@H](C1)N(Cc1ccccc1C#N)C2`: -11%; for `CC(C)Cc1cc(CN2C[C@H]3CC[C@@H]2CN(Cc2cscn2)C3)n[nH]1`: 12.5%. `CC(C)CC(C)NC1CCN(c2ccc(-c3cscn3)cc2)CC1` (configuration not stated): the cytotoxicity at 70.5 h is -15.5%. Regarding `COc1cccc(-n2cc(-c3ccnc(NC(CO)C(C)C)n3)cn2)c1` (configuration not stated), the cytotoxicity at 70.5 h amounted to 13.2%. Next, `CCn1cc(CN2CCC3(CC2)c2ccccc2CC3O)cn1` (configuration not stated): -8.46%. Next, `CCCc1cc(C(=O)NC(COC)c2ccnn2C)no1` (configuration not stated): 14.9%; `CN(C)CC1(O)CCN(C(=O)c2cnc(-c3cccnc3)nc2)C1` (configuration not stated): 3.5%. Consider `O=C(Cn1cccn1)N1CCc2[nH]nc(-c3ccc4c(c3)OCO4)c2C1`, for which the cytotoxicity at 70.5 h was -7.87%. Take `O=C(O)[C@@H]1CN(CC(=O)N2CCCCCC2)C[C@H]1c1ccc(F)cc1`: the cytotoxicity at 70.5 h is -5.12%. As to `Cc1ncc(CO)c(CN2CCCC2c2nc3c(C)cccc3[nH]2)c1O` (configuration not stated), the cytotoxicity at 70.5 h is -0.268%. As to `Cc1cc(C)cc(CN2CCN(Cc3ccc4nonc4c3)CC2=O)c1`, the cytotoxicity at 70.5 h is -0.612%. In the case of `O=C(c1ccc(-c2cccc3c2CCNC3)o1)N1CCCCC1`, the cytotoxicity at 70.5 h is -3.94%. As to `O=C(Cc1ccccc1)C1CCCN(Cc2cncn2C2CCCC2)C1` (configuration not stated), the cytotoxicity at 70.5 h was -7.77%. The same measure for `Cc1ccc(NC2(C(=O)N3CCn4cncc4C3)CCCCC2)cc1C`: -12.1%.

For the compound `Cc1ncsc1CCN(C)C(=O)CN1CC2(CCNCC2)OC1=O`, the cytotoxicity at 70.5 h amounted to 17.2%. Take `COc1cccc2c1OCC(C(=O)NCCn1nc(C)c(Cl)c1C)C2` (configuration not stated): the cytotoxicity at 70.5 h was -5.88%. As to `COc1ccc(N2CCN(C(=O)CCc3n[nH]c(C)n3)CC2=O)cc1`, the cytotoxicity at 70.5 h was 15.6%. For the compound `CCc1cnc(C)nc1NCCNc1nc(C)cc(=O)[nH]1`, the cytotoxicity at 70.5 h worked out at 0.367%. Regarding `COc1ccccc1Oc1ncccc1CNC(=O)[C@H](N)CC(C)(C)C`, the cytotoxicity at 70.5 h is -5.62%. Take `C[C@@H]1CCC[C@H](C)N1CC(=O)N1CCc2[nH]c(-c3ccccc3)nc2C1`: the cytotoxicity at 70.5 h was 27%. On to `CCc1nccc(CN2CCC(CNC(=O)[C@H]3CC[C@H](C)CC3)C2)n1` (some centres not stated), for which the cytotoxicity at 70.5 h turned out to be 27.6%.

In the case of `CO[C@@]1(C)C[C@@H](O)C12CCN(C(=O)CCn1c(C)cccc1=O)CC2`, the cytotoxicity at 70.5 h is -4.42%.

Take `Cn1ccnc1-c1cn(CCCc2csc(N)n2)nn1`: the cytotoxicity at 70.5 h was -15.7%.

For the compound `CCc1cc(N2CCN3CCCCC3C2)n2nccc2n1` (configuration not stated), the cytotoxicity at 70.5 h was -8.87%. Regarding `CN1[C@H]2CC[C@@H]1CN(C(=O)c1ccc(-c3ccccc3)[nH]1)CC2`, the cytotoxicity at 70.5 h was -2.64%. Next, `Cc1cnccc1CN1CCN(C)C2(CCC(=O)N(CC3CC3)CC2)C1` (configuration not stated): -1.45%; `COCCN(C)C[C@@H]1CN(C(=O)c2cccc(Cl)c2)C[C@@H]1CO`: -13.7%. With `Cc1cccc2nc(-c3nc4c([nH]3)CCCNC4=O)cn12`, the cytotoxicity at 70.5 h was 16%. Turning to `O=C(c1ccc(Cl)cc1)N1CCC2(CC1)C(=O)Nc1ccccc12`, the cytotoxicity at 70.5 h turned out to be 14.3%.

With `O=C(N1CCCC1)N1CCC(Nc2ccncn2)CC1`, the cytotoxicity at 70.5 h is -3.32%. Regarding `COc1ccc(/C=C/CN2CCC3(CC2)CN(C)C(=O)O3)cc1`, the cytotoxicity at 70.5 h was -6.12%. Regarding `COc1ccc2c(C)nc(N3C[C@@H](C)O[C@@H](C)C3)nc2c1`, the cytotoxicity at 70.5 h was -16.1%. The same measure for `CC(=O)NCCNc1nc(-c2ccccn2)nc2c1c(C)nn2C`: 1.86%; for `CN1CCC2(CCCN(S(=O)(=O)c3ccc(-c4cnco4)s3)C2)C1` (configuration not stated): -6.76%; for `CCn1cc(CN2C[C@H]3CC[C@@H]2CN(C(=O)C2CCC2)C3)cn1`: -6.91%. The same measure for `COCCn1ccnc1C1CCN(C(=O)C(O)c2ccc(F)cc2)CC1` (configuration not stated): -5.34%; for `COc1cccn(CC(=O)N(C)CCC2CCOCC2)c1=O`: 25%.

For the compound `O=C(NCCCO)c1cnc(-c2ccccc2)nc1O`, the cytotoxicity at 70.5 h was -2.27%. In the case of `O=C(Nc1ccc2occc2c1)N1CCCC(O)(CO)CC1` (configuration not stated), the cytotoxicity at 70.5 h was -1.52%. `C=C(C)COc1cccc(C(=O)NC(C)c2nnn[nH]2)c1` (configuration not stated): the cytotoxicity at 70.5 h is 18.4%. The same measure for `COc1ccc(-c2nc(CN3CCCC(OC)C3)c(C)o2)c(F)c1` (configuration not stated): 10.8%; for `NC1CCCc2nc(-c3ccccc3)ncc21` (configuration not stated): -8.86%; for `CCCOCCn1ncc(N2CCCC2)cc1=O`: -1.75%. Next, `COc1cc(-c2nc(CN(CCO)CCO)c(C)o2)ccc1F`: 2.15%; `C[C@@H]1CN(CCOCc2ccccc2)CC[C@@]1(O)C1CCC1`: 37.7%.

For `Cc1ccsc1[C@@H]1CCN(C(=O)c2ccc(-c3cc[nH]n3)cc2)C[C@H]1O`, the cytotoxicity at 70.5 h is -10.8%. As to `Cc1nc(CN2CCCC(Cn3cc(CCO)nn3)C2)c2ccccn12` (configuration not stated), the cytotoxicity at 70.5 h was -5.43%. In the case of `O=C(COc1ccccc1O)N1CCOC(C(F)(F)F)C1` (configuration not stated), the cytotoxicity at 70.5 h is 17.8%. In the case of `Cn1ncc2c(NC3CCSC3)nc(-c3ccncc3)nc21` (configuration not stated), the cytotoxicity at 70.5 h amounted to 3.97%. On to `Cc1n[nH]c(C)c1CCNC(=O)Nc1ccc2c(c1)COC2`, for which the cytotoxicity at 70.5 h was -19%.

As for `Cc1ccc(-n2cccn2)cc1S(=O)(=O)N1C[C@H](C2CC2)[C@@H](N)C1`, the cytotoxicity at 70.5 h turned out to be 11.6%. The same measure for `O=c1[nH]cnc2c1CCN(S(=O)(=O)c1ccc(Cl)cc1)C2`: -11.8%; for `CCc1ccc(CN2CCNC(C(=O)N3CCN(C)CC3)C2)nc1` (configuration not stated): -0.217%; for `Cc1ncsc1CCCNC(=O)C1CC2(CCNCC2)CN1C` (configuration not stated): 13%.

For the compound `CC(C)[C@@H](C)NC1CCN(c2ccc(-n3ccnc3)cc2)CC1`, the cytotoxicity at 70.5 h was -12.5%. Take `C=C(C)COc1cccc(C(=O)N(CC)Cc2nc(COC)no2)c1`: the cytotoxicity at 70.5 h was -7.82%.

For the origin of these results see ChEMBL document CHEMBL3507680, “University of Dundee, Gates Library screen for HepG2 cell viability”.
